# Assay results reported in patent publication US6906094B2, “1,2,4-tribsubstituted benzenes as inhibitors of 15-lipoxygenase” (Warner-Lambert Company, priority 2000, dated 2005).
# Columns and labels:
# [1] = target: T1, rabbit reticulocyte 15-LO (Oryctolagus cuniculus, UniProt P12530); experiment: Rabbit Reticulocyte 15-LO Assay (H15LO); format: biochemical; conditions: 2 U rabbit reticulocyte 15-LO, 174 μM linoleic acid, 15 minutes at 4° C., 13-HODE quantitated
# T1 construct: 15-LO is obtained from phenylhydrazine-treated rabbits and purified according to the method of Rapoport; from tissue; host or cells: reticulocytes of phenylhydrazine-treated rabbits
# T1 sequence (P12530 1-663): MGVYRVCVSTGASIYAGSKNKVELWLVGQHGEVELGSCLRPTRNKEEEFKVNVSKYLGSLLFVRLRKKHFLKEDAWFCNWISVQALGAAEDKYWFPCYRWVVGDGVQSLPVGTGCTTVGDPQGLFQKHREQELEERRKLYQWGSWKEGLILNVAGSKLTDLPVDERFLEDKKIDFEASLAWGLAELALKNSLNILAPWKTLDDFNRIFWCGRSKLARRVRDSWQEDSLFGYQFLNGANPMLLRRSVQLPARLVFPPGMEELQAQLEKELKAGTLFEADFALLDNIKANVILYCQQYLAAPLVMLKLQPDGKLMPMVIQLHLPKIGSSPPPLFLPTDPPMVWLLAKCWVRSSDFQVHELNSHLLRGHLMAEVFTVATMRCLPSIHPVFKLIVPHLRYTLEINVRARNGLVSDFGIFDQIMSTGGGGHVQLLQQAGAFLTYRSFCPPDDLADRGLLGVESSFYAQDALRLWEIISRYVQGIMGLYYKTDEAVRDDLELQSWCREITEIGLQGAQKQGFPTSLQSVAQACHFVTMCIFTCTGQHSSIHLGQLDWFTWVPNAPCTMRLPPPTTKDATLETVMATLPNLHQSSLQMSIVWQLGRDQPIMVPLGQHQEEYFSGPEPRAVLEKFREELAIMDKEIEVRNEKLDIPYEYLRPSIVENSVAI
# Experimental: In the H15LO assay, a test compound was incubated with 15-LO enzyme in the presence of the linoleic acid substrate. For example, 2 units (U) of rabbit reticulocyte 15-LO and 174 μM linoleic acid were incubated with a known amount of a test compound of the present invention for 15 minutes at 4° C. The total reaction volume was 100 μL in phosphate buffer saline (PBS) containing 0.2% sodium cholate. The reaction was stopped with 100 μL of mobile phase and […] of triethyl phosphite. […] 13-HODE was quantitated by comparing peak areas of individual samples with those from a standard curve generated using authentic 13-HODE.
# 15-LO is obtained from phenylhydrazine-treated rabbits and purified according to the method of Rapoport (Rapoport et al., European Journal of Biochemistry, 1979;96:545-561).
# [2] = target: T2, human 15-LO (Homo sapiens, UniProt P16050); experiment: Human Lysate 15-LO Assay (HUM15LO); format: biochemical; conditions: recombinant human 15-LO, 174 μM linoleic acid, 15 minutes at 4° C., 13-HODE quantitated
# T2 construct: made in house; host or cells: Sf9 insect cells (baculovirus, Bac-to-Bac)
# T2 sequence (P16050 1-662): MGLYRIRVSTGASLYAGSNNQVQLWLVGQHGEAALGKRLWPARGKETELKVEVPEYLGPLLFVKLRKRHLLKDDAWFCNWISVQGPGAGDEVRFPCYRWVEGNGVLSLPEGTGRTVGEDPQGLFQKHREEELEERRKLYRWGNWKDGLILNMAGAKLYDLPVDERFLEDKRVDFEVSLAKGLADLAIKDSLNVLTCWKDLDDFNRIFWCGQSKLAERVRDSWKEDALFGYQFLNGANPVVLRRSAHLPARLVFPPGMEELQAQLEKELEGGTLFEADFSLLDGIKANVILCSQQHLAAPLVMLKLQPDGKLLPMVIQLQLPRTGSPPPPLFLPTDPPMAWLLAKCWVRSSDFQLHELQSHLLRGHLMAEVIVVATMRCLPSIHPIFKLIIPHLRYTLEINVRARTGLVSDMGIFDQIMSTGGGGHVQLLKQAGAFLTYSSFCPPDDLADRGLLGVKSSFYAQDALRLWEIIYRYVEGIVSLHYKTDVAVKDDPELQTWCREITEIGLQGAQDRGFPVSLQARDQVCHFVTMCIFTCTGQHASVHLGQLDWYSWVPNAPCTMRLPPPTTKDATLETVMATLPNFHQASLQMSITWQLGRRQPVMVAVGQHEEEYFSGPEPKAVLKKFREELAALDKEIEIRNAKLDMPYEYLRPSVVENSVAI
# Experimental: In the HUM15LO assay, a test compound of the present invention was incubated with 15-LO enzyme in the presence of the linoleic acid substrate. For example, a known amount of a test compound of the present invention, 100 μL of human 15-LO, and 174 μM linoleic acid in PBS containing 0.2% sodium cholate were incubated for 15 minutes at 4° C. The reaction was stopped with 100 μL of mobile phase and 10 μL of triethyl phosphite. […] 13-HODE was quantitated by comparing peak areas of individual samples with those from a standard curve generated using authentic 13-HODE. The test reaction is compared to a control reaction, which is identical to the test reaction except no test compound of the present invention is present Percent inhibition is calculated as the amount of 13-HODE produced by the test reaction divided by the amount of 13-HODE produced by the control reaction, expressed as a percent.
# Human 15-LO was generated in a recombinant 15-lipoxygenase bacculovirus expression system, using Gibco/BRL/Life Technologies' Bac-to-Bac expression reagents; T4 DNA ligase, Kanamycin, Gentamicin, tetracycline, penicillin, streptomycin, Bluo-gal, IPTG, DH10Bac competent cells, SOC, LB medium, Sf-900 II SFM media, Sf9 insect cells, Cell Fectin, and EcoRI, BamHI and KpnI restriction enzymes.
SMILES,melting point [°C],IC50 [1] [nM],IC50 [2] [nM]
"COC(=O)COC(=O)NS(=O)(=O)Nc1cc(-c2cc3cc(F)c(F)cc3[nH]2)ccc1OC (hydrate or solvate) [Example 43, Acetic Acid, [[[[[[5-(5,6-difluoro-1H-indol-2-yl)-2-methoxyphenyl]amino]-sulfonyl]amino]carbonyl]oxy]-, Methyl ester]",190 to 192,–,–
"COc1ccc(C(=O)Nc2ccc(F)c(F)c2)cc1NS(=O)(=O)NC(=O)Nc1ccc(C(C)(C)C)cc1 (hydrate or solvate) [Example 59, Benzamide, N-(3,4-difluorophenyl)-3-[[[[[[4-(1,1-dimethylethyl)phenyl]-amino]carbonyl]amino]sulfonyl]amino]-4-methoxy]",199 to 202,–,–
"COc1ccc(C(=O)Nc2ccc(F)c(F)c2)cc1NS(=O)(=O)NC(=O)Nc1cccc([N+](=O)[O-])c1 (hydrate or solvate) [Example 60, Benzamide, N-(3,4-difluorophenyl)-4-methoxy-3-[[[[[(3-nitrophenyl) -amino]carbonyl]amino]sulfonyl]amino]]",206 to 208,–,–
"COc1ccc(C(=O)Nc2ccc(F)c(F)c2)cc1NS(=O)(=O)NC(=O)OCC(C)C [Example 23, Carbamic Acid, [[(5-[[(3,4-difluorophenyl)amino]carbonyl]-2-methoxyphenyl]amino]sulfonyl]-, 2-methylpropyl ester]",188 to 190,–,–
"CCCCCCCOC(=O)NS(=O)(=O)Nc1cc(-c2cc3cc(F)c(F)cc3[nH]2)ccc1OC [Example 30, Carbamic Acid, [[[5-(5,6-difluoro-IH-indo-2-yl)2-methoxyphenyl]amino]-sulfonyl]-heptyl ester]",178 to 180,5,14
"COc1ccc(-c2cc3cc(F)c(F)cc3[nH]2)cc1NS(=O)(=O)NC(=O)OC/C=C/c1ccccc1 [Example 32, Carbamic Acid, [[[5-(5,6-difluoro-IH-indol-2-yl)-2-methoxyphenyl]amino]sulfonyl]-(2E)-3-phenyl-2-propenyl ester]",149 to 152,6,16
"COc1ccc(-c2cc3cc(F)c(F)cc3[nH]2)cc1NS(=O)(=O)NC(=O)OCc1ccccc1 [Example 36, Carbamic Acid, [[[5-(5,6-difluoro-IH-indol-2-yl)-methoxyphenyl]amino]-sulfonyl]-, Phenylmethyl ester]",177 to 180,12,13
"COc1ccc(C(=O)Nc2ccc(F)c(F)c2)cc1NS(=O)(=O)NC(=O)OCc1ccccc1 [Example 42, Carbamic Acid, [[[5-[[(3,4-difluorophenyl)amino]carbonyl]-2-methoxyphenyl]amino]sulfonyl]-, Phenylmethyl Ester]",173 to 176,19,76
"COC(=O)COC(=O)NS(=O)(=O)Nc1cc(C(=O)Nc2ccc(F)c(F)c2)ccc1OC [Example 44, Acetic Acid, [[[[[[5-[[(3,4-difluorophenyl)amino]carbonyl]-2-methoxyphenyl]-amino]sulfonyl]amino]carbonyl]oxy]-, Methyl ester]",177 to 180,–,236
"COc1ccc(C(=O)Nc2ccc(F)c(F)c2)cc1NS(=O)(=O)NC(=O)OCCCO [Example 46, Carbamic Acid, [[[5-[[(3,4-difluorophenyl)amino]carbonyl]-2-methoxyphenyl]amino]sulfonyl]-, 3-hydroxypropyl ester]",178 to 179,–,830
"CCOCCOC(=O)NS(=O)(=O)Nc1cc(C(=O)Nc2ccc(F)c(F)c2)ccc1OC [Example 48, Carbamic Acid, [[[5[[(3,4-difluorophenyl)amino]carbonyl]-2-methoxyphenyl]amino]sulfonyl]-, 2-ethoxyethyl ester]",179 to 182,–,306
"COc1ccc(C(=O)Nc2ccc(F)c(F)c2)cc1NS(=O)(=O)NC(=O)Nc1cccc(C(F)(F)F)c1 [Example 64, Benzamide, N-(3,4-difluorophenyl)methoxy-3-[[[[[[3-(trifluoromethyl)phenyl]amino]carbonyl]amino]sulfonyl]amino]]",198 to 200,–,24

# Further lines, results first:
melting point [°C],IC50 [1] [nM],IC50 [2] [nM],SMILES
158 to 160,–,–,"COc1ccc(-c2cc3cc(F)c(F)cc3[nH]2)cc1NS(=O)(=O)NC(=O)OC(C)(C)C (hydrate or solvate) [Example 53, Carbamic Acid, [[[5-(5,6-difluoro-indol-2-yl)-2-methoxyphenyl]amino]-sulfonyl]-, 1,1-dimethylethyl ester]"
175 to 178,–,–,"COc1ccc(C(=O)Nc2ccc(F)c(F)c2)cc1NS(=O)(=O)NC(=O)Nc1cc(C(F)(F)F)cc(C(F)(F)F)c1 (hydrate or solvate) [Example 62, Benzamide, 3-[[[[[[3,5-bis(trifluoromethyl)phenyl]amino]-carbonyl]amino]-sulfonyl]amino]-N-(3,4-difluorophenyl)-4-methoxy]"
159 to 163,7,13,"COc1ccc(C(=O)Nc2ccc(F)c(F)c2)cc1NS(=O)(=O)NC(=O)OC/C=C/c1ccccc1 [Example 33, Carbamic Acid, [[[5-[[(3,4-difluorophenyl)amino]carbonyl]-2-methoxyphenyl]amino]sulfonyl]-, (2E)-3-phenyl-2-propenyl ester]"
203 to 205,–,341,"COc1ccc(C(=O)Nc2ccc(F)c(F)c2)cc1NS(=O)(=O)NC(=O)OCCN1C(=O)c2ccccc2C1=O [Example 56, Carbamic Acid, [[[5-[[(3,4-difluorophenyl)amino]carbonyl]-2-methoxyphenyl]amino]sulfonyl]-, 2-(1,3-dihydro-1,3-dioxo-2H-isoindol-2-yl)ethyl ester]"
193 to 194,–,751,"COc1ccc(C(=O)Nc2ccc(F)c(F)c2)cc1NS(=O)(=O)NC(=O)OC(C)(C)C [Example 58, Carbamic acid, [[[5-[[(3,4-difluorophenyl)amino]carbonyl]-2-methoxyphenyl]amino]sulfonyl]-, 1,1-dimethylethyl ester]"
195 to 198,–,359,"COc1ccc(C(=O)Nc2ccc(F)c(F)c2)cc1NS(=O)(=O)NC(=O)Nc1ccc(Cl)cc1 [Example 68, Benzamide, 3-[[[[[(4-chlorophenyl)amino]carbonyl]amino]sulfonyl]amino]-N-(3,4-difluorophenyl)-4-methoxy]"
